Where a name gives a salt, the structure may show the parent alone.

Broadly, the melting point is the temperature of the solid-liquid transition.

As to `CC1(C)C(=O)N(c2ccc(C#N)c(Cl)c2)C(=S)N1c1ccc(OC2CCNCC2)nc1` (as salt: hydrochloride) [Compound 9, 2-Chloro-4-(4,4-dimethyl-5-oxo-3-(6-(piperidin-4-yloxy)pyridin-3-yl)-2-thioxoimidazolidin-1-yl)benzonitrile hydrochloride], the melting point came to 216.5 °C. Compound `CC1(C)C(=O)N(c2ccc(C#N)c(Cl)c2)C(=S)N1c1ccc(OC2CCNCC2)cc1` (as salt: hydrochloride) [Compound 7, 2-Chloro-4-(4,4-dimethyl-5-oxo-3-(4-(piperidin-4-yloxy)phenyl)-2-thioxoimidazolidin-1-yl)benzonitrile hydrochloride] showed a melting point above 300 °C. To `N#Cc1ccc(N2C(=O)C3(CCC3)N(c3ccc(OC4CCNCC4)nc3)C2=S)cc1Cl` (as salt: hydrochloride) [Compound 23, 2-Chloro-4-(8-oxo-5-(6-(piperidin-4-yloxy)pyridin-3-yl)-6-thioxo-5,7-diazaspiro[3.4]octan-7-yl)benzonitrile hydrochloride] belongs 260.1 °C. To `CN1CCC(Oc2ccc(N3C(=S)N(c4ccc(C#N)c(Cl)c4)C(=O)C3(C)C)cc2)CC1` (as salt: hydrochloride) [Compound 8, 2-Chloro-4-(4,4-dimethyl-3-(4-((1-methylpiperidin-4-yl)oxy)phenyl)-5-oxo-2-thioxoimidazolidin-1-yl)benzonitrile hydrochloride] belongs 251.7 °C; to `CN1CCC(Oc2ccc(N3C(=S)N(c4ccc(C#N)c(Cl)c4)C(=O)C34CCC4)cn2)CC1` (as salt: hydrochloride) [Compound 24, 2-Chloro-4-(5-(6-((1-methylpiperidin-4-yl)oxy)pyridin-3-yl)-8-oxo-6-thioxo-5,7-diazaspiro[3.4]octan-7-yl)benzonitrile hydrochloride], 239 °C; to `CN1CCC(Oc2ccc(N3C(=S)N(c4ccc(C#N)c(Cl)c4)C(=O)C3(C)C)cn2)CC1` (as salt: hydrochloride) [Compound 10, 2-Chloro-4-(4,4-dimethyl-3-(6-((1-methylpiperidin-4-yl)oxy)pyridin-3-yl)-5-oxo-2-thioxoimidazolidin-1-yl)benzonitrile hydrochloride], 220.9 °C.

Source of the values: patent publication US20190337924A1, “SUBSTITUTED HYDANTOIN AND THIOHYDANTOIN DERIVATIVES AS ANDROGEN RECEPTOR ANTAGONISTS” (Janssen Pharmaceutica NV, priority 2016, published 2019).
